target: T1, human NAAA (Homo sapiens, UniProt Q02083); assay: In vitro human NAAA fluorogenic assay; assay type: biochemical; conditions: enzyme-enriched lysate of HEK-293 cells stably transfected with human NAAA; read-out: Activity h-NAAA Fluorogenic assay
T1 construct: expressed in transfected cells; host or cells: HEK-293 (stably transfected, G418 selection); enzyme-enriched lysate
T1 sequence (Q02083 126-359 limits assumed): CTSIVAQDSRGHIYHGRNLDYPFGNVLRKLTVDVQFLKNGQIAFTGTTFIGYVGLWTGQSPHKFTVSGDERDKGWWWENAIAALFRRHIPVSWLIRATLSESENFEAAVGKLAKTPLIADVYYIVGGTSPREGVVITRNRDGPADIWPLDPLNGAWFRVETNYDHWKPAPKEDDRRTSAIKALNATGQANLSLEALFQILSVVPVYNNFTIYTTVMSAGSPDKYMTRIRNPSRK
T1 sequence (Q02083 29-125 limits assumed): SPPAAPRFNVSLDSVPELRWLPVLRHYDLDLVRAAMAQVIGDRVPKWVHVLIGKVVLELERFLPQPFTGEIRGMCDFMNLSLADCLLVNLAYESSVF
Description: Human recombinant proteins were obtained from HEK-293 stable overexpressing NAAA cell lines. Cells were grown in Dulbecco's modified Eagle medium (DMEM) containing 10% FBS, 1% penicillin/streptomycin, 1% glutamine and 500 μg/mL G418. To obtain membrane preparation cells were scraped off with cold phosphate-buffered saline (PBS) and collected by centrifugation (300×g, 7 min, 4° C.). Cell pellet were stored at −80° C. until protein preparation.
In Vitro Human NAAA Assay
Preparation of Enzyme-Enriched Lysate (h-NAAA).
HEK-293 cells stably transfected with the human NAAA coding sequences were used as enzyme source. Cell pellets were suspended in 20 mM Tris HCl (pH 7.4) with 0.32 M sucrose, sonicated and centrifuged at 800×g for 30 min at 4° C. Supernatants were then ultracentrifuged at 12,000×g for 30 min at 4° C. Pellets were re-suspended in PBS buffer (pH 7.4) and subjected to three freeze-thaw cycles at −80° C. The suspension was finally ultracentrifuged at 105,000×g for 1 h at 4° C., supematants were collected, protein concentration was measured and samples aliquoted and stored at −80° C. until use.
The results are summarized in Table 3 as follows, wherein +: IC50>2 μM; ++: 1.0 μM<IC50<2 μM; +++: IC50<1 μM: […]

IC50 [nM] | Structure (SMILES)
< 1000 | Cc1n[nH]c(C)c1S(=O)(=O)N1C2CCC1CC(Oc1ccccc1)C2 [Example 01, (1R,3s,5S)-8-[(3,5-Dimethyl-1H-pyrazol-4-yl)sulfonyl]-3-phenoxy-8-azabicyclo[3.2.1]octane]
< 1000 | Cc1n[nH]c(C)c1S(=O)(=O)N1C2CCC1CC(Oc1ccccc1)C2 [Example 02, (1R,3r,5S)-8-[(3,5-Dimethyl-1H-pyrazol-4-yl)sulfonyl]-3-phenoxy-8-azabicyclo[3.2.1]octane]
< 1000 | Cc1cccc(OC2CC3CCC(C2)N3S(=O)(=O)c2c(C)n[nH]c2C)c1 [Example 04, (1R,3r,5S)-3-(3-Methylphenoxy)-8-[(3,5-dimethyl-1H-pyrazol-4-yl)sulfonyl]-8-azabicyclo[3.2.1]octane]
> 2000 | Cc1cccc(OC2CC3CCC(C2)N3S(=O)(=O)c2c(C)n[nH]c2C)c1 [Example 05, (1R,3s,5S)-3-(3-Methylphenoxy)-8-[(3,5-dimethyl-1H-pyrazol-4-yl)sulfonyl]-8-azabicyclo[3.2.1]octane]
< 1000 | Cc1ccc(OC2CC3CCC(C2)N3S(=O)(=O)c2c(C)n[nH]c2C)cc1 [Example 07, (1R,3r,5S)-3-(4-methylphenoxy)-8-[(3,5-dimethyl-1H-pyrazol-4-yl)sulfonyl]-8-azabicyclo[3.2.1]octane]
> 2000 | Cc1ccc(OC2CC3CCC(C2)N3S(=O)(=O)c2c(C)n[nH]c2C)cc1 [Example 10, (1R,3s,5S)-3-(4-methylphenoxy)-8-[(3,5-dimethyl-1H-pyrazol-4-yl)sulfonyl]-8-azabicyclo[3.2.1]octane]
> 2000 | Cc1ccccc1OC1CC2CCC(C1)N2S(=O)(=O)c1c(C)n[nH]c1C [Example 11, (1R,3s,5S)-3-(2-methylphenoxy)-8-[(3,5-dimethyl-1H-pyrazol-4-yl)sulfonyl]-8-azabicyclo[3.2.1]octane]
< 1000 | Cc1ccccc1OC1CC2CCC(C1)N2S(=O)(=O)c1c(C)n[nH]c1C [Example 12, (1R,3r,5S)-3-(2-methylphenoxy)-8-[(3,5-dimethyl-1H-pyrazol-4-yl)sulfonyl]-8-azabicyclo[3.2.1]octane]
< 1000 | Cc1n[nH]c(C)c1S(=O)(=O)N1C2CCC1CC(Oc1cnccn1)C2 [Example 13, (1R,3r,5S)-8-[(3,5-Dimethyl-1H-pyrazol-4-yl)sulfonyl]-3-pyrazin-2-yloxy-8-azabicyclo[3.2.1]octane]
> 2000 | CCCCc1ccc(OC2CC3CCC(C2)N3S(=O)(=O)c2cc(C)sc2C)cc1 [Example 16, (1R,3r,5S)-3-(4-Butylphenoxy)-8-[(2,5-dimethyl-3-thienyl)sulfonyl]-8-azabicyclo[3.2.1]octane]
< 1000 | CCc1ccc(OC2CC3CCC(C2)N3S(=O)(=O)c2c(C)n[nH]c2C)cc1 [Example 17, (1R,3r,5S)-3-(4-Ethylphenoxy)-8-[(3,5-dimethyl-1H-pyrazol-4-yl)sulfonyl]-8-azabicyclo[3.2.1]octane]
> 2000 | Cc1n[nH]c(C)c1S(=O)(=O)N1C2CCC1CC(Oc1ccc3ccccc3n1)C2 [Example 22, (1R,3r,5S)-8-[(3,5-Dimethyl-1H-pyrazol-4-yl)sulfonyl]-3-(2-quinolyloxy)-8-azabicyclo[3.2.1]octane]
< 1000 | Cc1n[nH]c(C)c1S(=O)(=O)N1C2CCC1CC(Oc1ccccn1)C2 [Example 25, (1R,3r,5S)-8-[(3,5-Dimethyl-1H-pyrazol-4-yl)sulfonyl]-3-(2-pyridiloxy)-8-azabicyclo[3.2.1]octane]
< 1000 | CCCOc1ccc(OC2CC3CCC(C2)N3S(=O)(=O)c2c(C)n[nH]c2C)cc1 [Example 26, (1R,3r,5S)-3-(4-Propoxyphenoxy)-8-[(3,5-dimethyl-1H-pyrazol-4-yl)sulfonyl]-8-azabicyclo[3.2.1]octane]
> 2000 | Cc1n[nH]c(C)c1S(=O)(=O)N1C2CCC1CC(Oc1nc3c(C)cccc3o1)C2 [Example 28, (1R,3r,5S)-8-[(3,5-Dimethyl-1H-pyrazol-4-yl)sulfonyl]-3-(2-(4-methyl)-benzoxazoloxy)-8-azabicyclo[3.2.1]octane]
< 1000 | Cc1n[nH]c(C)c1S(=O)(=O)N1C2CCC1CC(Oc1ccc(C(F)(F)F)cc1)C2 [Example 29, (1R,3r,5S)-3-(4-Trifluoromethyl-phenoxy)-8-[(3,5-dimethyl-1H-pyrazol-4-yl)sulfonyl]-8-azabicyclo[3.2.1]octane]
> 2000 | CCN(CC)Cc1ccc(OC2CC3CCC(C2)N3S(=O)(=O)c2c(C)n[nH]c2C)cc1 [Example 32, (1R,3r,5S)-3-[4-Diethylaminomethyl-phenoxy]-8-[(3,5-dimethyl-1H-pyrazol-4-yl)sulfonyl]-8-azabicyclo[3.2.1]octane]
< 1000 | Cc1n[nH]c(C)c1S(=O)(=O)N1C2CCC1CC(Oc1ccc(CCC(C)C)cc1)C2 [Example 33, (1R,3r,5S)-3-[4-Isopentyl-phenoxy]-8-[(3,5-dimethyl-1H-pyrazol-4-yl)sulfonyl]-8-azabicyclo[3.2.1]octane]
> 2000 | Cc1n[nH]c(C)c1S(=O)(=O)N1C2CCC1CC(Oc1cnc3ccccc3n1)C2 [Example 34, (1R,3r,5S)-8-[(3,5-Dimethyl-1H-pyrazol-4-yl)sulfonyl]-3-(2-quinoxalyloxy)-8-azabicyclo[3.2.1]octane]
< 1000 | CCOCc1ccc(OC2CC3CCC(C2)N3S(=O)(=O)c2c(C)n[nH]c2C)cc1 [Example 35, (1R,3r,5S)-3-(4-Ethoxymethyl-phenoxy)-8-[(3,5-dimethyl-1H-pyrazol-4-yl)sulfonyl]-8-azabicyclo[3.2.1]octane]

Structure (SMILES) | IC50 [nM]
Cc1n[nH]c(C)c1S(=O)(=O)N1C2CCC1CC(Oc1ccc(-c3ccccc3)cc1)C2 [Example 06, (1R,3r,5S)-3-(4-phenylphenoxy)-8-[(3,5-dimethyl-1H-pyrazol-4-yl)sulfonyl]-8-azabicyclo[3.2.1]octane] | 1000 to 2000
CCCCc1ccc(OC2CC3CCC(C2)N3S(=O)(=O)c2c(C)nn(C)c2C)cc1 [Example 14, (1R,3r,5S)-3-(4-Butylphenoxy)-8-(1,3,5-trimethylpyrazol-4-yl)sulfonyl-8-azabicyclo[3.2.1]octane] | < 1000
Cc1n[nH]c(C)c1S(=O)(=O)N1C2CCC1CC(Oc1ccc(C(C)C)cc1)C2 [Example 18, (1R,3r,5S)-3-(4-Isopropylphenoxy)-8-[(3,5-dimethyl-1H-pyrazol-4-yl)sulfonyl]-8-azabicyclo[3.2.1]octane] | < 1000
CCCCc1ccc(OC2CC3CCC(C2)N3S(=O)(=O)c2c(C(C)C)n[nH]c2C)cc1 [Example 20, (1R,3r,5S)-3-(4-Butylphenoxy)-8-[(3-isopropyl-5-methyl-1H-pyrazol-4-yl)sulfonyl]-8-azabicyclo[3.2.1]octane] | < 1000
Cc1ccc(OC2CC3CCC(C2)N3S(=O)(=O)c2c(C)n[nH]c2C)c(F)c1 [Example 21, (1R,3r,5S)-3-(2-Fluoro-4-methylphenoxy)-8-[(3,5-dimethyl-1H-pyrazol-4-yl)sulfonyl]-8-azabicyclo[3.2.1]octane] | < 1000
Cc1n[nH]c(C)c1S(=O)(=O)N1C2CCC1CC(Oc1nc3ccccc3o1)C2 [Example 23, (1R,3r,5S)-8-[(3,5-Dimethyl-1H-pyrazol-4-yl)sulfonyl]-3-(2-benzoxazoloxy)-8-azabicyclo[3.2.1]octane] | < 1000
COc1ccc(O[C@H]2C[C@H]3CC[C@@H](C2)N3S(=O)(=O)c2c(C)n[nH]c2C)cc1 [Example 24, (1R,3r,5S)-3-(4-Methoxyphenoxy)-8-[(3,5-dimethyl-1H-pyrazol-4-yl)sulfonyl]-8-azabicyclo[3.2.1]octane] | < 1000
Cc1ccc(OC2CC3CCC(C2)N3S(=O)(=O)c2c(C)n[nH]c2C)nc1 [Example 27, (1R,3r,5S)-8-[(3,5-Dimethyl-1H-pyrazol-4-yl)sulfonyl]-3-[(5-methyl-2-pyridil)oxy]-8-azabicyclo[3.2.1]octane] | < 1000
Cc1n[nH]c(C)c1S(=O)(=O)N1C2CCC1CC(Oc1ccc(C=O)cc1)C2 [Example 30, (1R,3r,5S)-3-(4-Formyl-phenoxy)-8-[(3,5-dimethyl-1H-pyrazol-4-yl)sulfonyl]-8-azabicyclo[3.2.1]octane] | < 1000
Cc1n[nH]c(C)c1S(=O)(=O)N1C2CCC1CC(Oc1ccc(CO)cc1)C2 [Example 31, (1R,3r,5S)-3-(4-Hydroxymethyl-phenoxy)-8-[(3,5-dimethyl-1H-pyrazol-4-yl)sulfonyl]-8-azabicyclo[3.2.1]octane] | < 1000
Cc1cnc(OC2CC3CCC(C2)N3S(=O)(=O)c2c(C)n[nH]c2C)cn1 [Example 36, (1R,3r,5S)-8-[(3,5-Dimethyl-1H-pyrazol-4-yl)sulfonyl]-3-(5-methylpyrazin-2-yl)oxy-8-azabicyclo[3.2.1]octane] | < 1000

— patent publication US10865194B2, “Therapeutically active bicyclic-sulphonamides and pharmaceutical compositions” (FONDAZIONE ISTITUTO ITALIANO DI TECNOLOGIA, priority 2017, dated 2020)
